Data from article PMC4309560, “Creating Novel Activated Factor XI Inhibitors through Fragment Based Lead Generation and Structure Aided Drug Design” (PLoS ONE, 2015).
Where two headings read alike, the source gives them in different places.

Key:
FXIa CD [1] = biological target: T1, FXIa CD (Homo sapiens, UniProt P03951, C500S/K455A/S452A/T493A); assay: Ligand detected 1D NMR fragment screen; type: binding; conditions: compounds screened at 100 μM, 5 μM FXIa CD
T1 construct: purification of the catalytic domain (residues 370–607) was carried out as described by Jin et al; made in house
Procedure: Ligand detected 1D NMR. Compounds were screened at 100 μM in mixtures of six. Weakly binding fragments were identified from intensity changes through measurements on three samples viz. […] The signal from a compound binding with low affinity to FXIa CD decreased upon addition of protein and regained upon addition of a high affinity reference compound. Comparison with reference spectra of individual compounds enabled identification of the binding fragment in a mixture. […] As a positive control, the S1 binding ligand para-methyl-benzamidine (pMeBza), compound 3, was used, and in Fig. 3 the doublet at 7.66 ppm is shown.
NMR samples were prepared in aqueous buffer containing 50 mM deuterated TRIS, pH 7.4, 3 mM NaN3, and 10% D2O. FXIa CD stock solution was buffer exchanged and concentrated to approximately 100 μM (2.7 mg/mL) (UV absorption ε280 = 60390 cm^-1) using 10 kDa cut-off Millipore filter centrifugation tubes. Control experiments with pMeBza and compound 2 were done on all protein preparations (Fig. 3). […]
NMR data were collected at 20 °C on a Bruker Avance III 600 MHz NMR spectrometer equipped with a cryo probe head. 1D ^1H T 1ρ NMR spectra were recorded with 256 scans, 3.2 s interscan delay, 180 ms spin lock time and 64 kHz spin lock field. […]

Human FXIa = biological target: T2, Human FXIa (Homo sapiens, UniProt P03951); assay: FXIa enzymatic chromogenic assay; type: biochemical
T2 construct: purchased HTI, Essex Junction, USA
Procedure: (§1) Enzymatic assay. […] Selected compounds were also screened against other serine proteases to evaluate their selectivity profiles.
(§2) Once the compounds were synthesized and characterized, enzymatic assays were performed to evaluate the inhibitory activity of the resulting compounds against FXIa and other serine proteases. […] IC50 values for the compounds were determined using equation: Q= V/(1+([I]/IC50)^n) Q denotes the assay readout, V denotes the uninhibited velocity of the enzyme, [I] denotes the inhibitor concentration, n denotes the slope and IC50 is the inhibitor concentration at V/2.
(§3) [S] denotes the substrate concentration.

FXIa = test system: FXIa; set-up: method as in PMID 17597608; conditions: irreversible inhibition; cited from earlier work
rat models = test system: rat models; set-up: method as in PMID 17597608; conditions: cited from earlier work
FXIa CD [2] = biological target: T1, FXIa CD; assay: FXIa surface plasmon resonance (Biacore) inhibition in solution assay; type: binding
Text: SPR. […] The SPR data were then used to rank and select compounds for X-ray crystallography experiments. The SPR method was based on an inhibition in solution assay in which compound 4, immobilized on the biosensor surface, served as a probe for the FXIa catalytic site. […] Fig. 4 illustrates the design of compound 4 based on the crystal structure of FXIa in complex with compound 1. Since any ligand that binds to the S1 pocket competes with compound 4 for binding to FXIa CD, it is possible to derive the K D for that ligand [60]. The initial binding rate of the protein to compound 4, K on, was used to determine the percentage of free protein in solution which changed by varying the concentration of the competing ligand. The free protein concentration was plotted against the logarithm of the ligand concentration and a sigmoidal dose–response curve-fit model was applied to determine the K D-value.
The tethered free amine ligand 4 was covalently linked to the dextran layer on the CM5 sensor chip (GE Healthcare/Biacore) using the Amine Coupling Kit (Healthcare/Biacore) and performed according to the manufacturer’s recommendations. Carboxyl groups on the dextran layer were activated by injecting a 1:1 mixture of 0.5 M N-ethyl-N’ (3-dimethylaminopropyl)-carbodiimide and 0.5 M N-hydroxysuccinimide at 10 μL/min for 7 min. The activated carboxyl groups on the control channels were blocked by injecting a 1 M ethanolamine solution for 7 min at 10 μL/min. […] The remaining activated groups were blocked with 1 M ethanolamine. Compounds were tested in a concentration response curve. The compounds were serially diluted 1:3 in DMSO to form a 10-point concentration response curve with 5 mM for the highest concentration. The FXIa CD was added to the plate at a final concentration of 50 nM and the mixture was incubated for 15 min at RT. The plate was then sealed and placed in the Biacore 3000 instrument. Samples were injected at 20 μL/min for 2 min. […] The value used to calculate percent inhibition of binding was the slope of the response measured 8 s after the start of the injection. […]

Human PKK = biological target: T3, Human PKK (Homo sapiens, UniProt P03952); assay: PKK (plasma kallikrein) chromogenic assay; type: biochemical; conditions: for Ki: converted from IC50
T3 construct: trypsin, plasma kallikrein (PKK), FIXa; purchased Calbiochem, Darmstadt, Germany
Procedure: as §1, §2, §3
PKK. Human PKK was from Calbiochem, Darmstadt, Germany.

[3] = Precipitation in FXIa potency measurement; type: physicochemical
Caco2 cells = assay: Caco2 permeability; type: in vitro ADME; conditions: measured at pH 6.5
Procedure: A monolayer of Caco2 cells, cultured on semi-permeable polycarbonate surfaces, was used to study the permeability in the apical to basolateral direction. The process was atomized by a robotic Tecan EVO platform (Männerdorf, Switzerland) and 24-transwell plates from Costar (Cambridge, MA, USA). HBSS buffer pH 7.4 was dispensed to the basal side of the monolayer. […] Samples for quantitative analysis by LC/MS/MS were withdrawn before the addition of the test substrate and at 45 and 120 min post addition of the test substrate. During incubation the transwell plates were placed in a shaking incubator at 37°C between sampling. The peak areas were exported to Excel where Papp-values and recoveries were calculated. Twenty-two reference compounds with known human oral bioavailability were used to establish a correlation curve with Papp versus the fraction of the oral dose absorbed (fa).

[4] = Chromatographic determination of lipophilicity; type: physicochemical; conditions: reversed-phase UPLC, Waters BEH C18 stationary phase, pH 7.4; measured by liquid chromatography, pH7.4
Text: The chromatographic data was obtained utilizing a Waters Aquity UPLC chromatographic system running a gradient from 5–95% acetonitrile at pH7.4. The stationary phase was a Waters BEH C18 2.1x50 mm. Standardized retention data were obtained by normalization against a set of compounds with precisely determined (octanol/water) logD-values. Lipophilicity values for samples were derived from a corresponding calibration curve.

Caco2 efflux = type: in vitro ADME; conditions: human, Caco-2; Caco2, Papp B to A / Papp A to B, pH 7.4 at side A
Text: Efflux was studied in the same Caco2 cells with the modification that HBSS buffer pH 7.4 was used on both sides of the monolayer. The permeability was studied in the apical to basolateral direction (Papp AB) as well as in the basolateral to apical direction and (Papp BA). Efflux ratios were derived from the following equation: Papp BA/Papp AB.

rat hepatocytes = assay: Rat hepatocyte metabolic stability assay; type: in vitro ADME
Procedure: Rat hepatocyte metabolic stability was determined in accordance with the method described by Jacobson et al.. Cryo preserved hepatocytes at a concentration of 10^6 viable cells/mL were used. After thawing, hepatocytes were incubated for 10 min to warm to 37°C and test compounds, dissolved in acetonitrile, were added to give a final concentration of 1 μM. At 0.5, 5, 15, 30, 45, 60, 80, 100 and 120 min, the incubation system was mixed and 20 μL aliquots were transferred at each time point to wells in a separate plate filled with 80 μL acetonitrile to stop the reaction. The quenching plate was then vortexed followed by centrifugation, and supernatants were analyzed by LC/MS/MS. Peak areas were determined from extracted ion chromatograms, and the in vitro intrinsic clearance (in vitro CLint, in μL/min/10^6 cells) of parent compound was calculated from the slope in the regression analysis of the natural logarithm of parent concentration vs. time curve.

In vivo rat PK = conditions: female, Sprague Dawley, plasma
Procedure: Two days prior to dosing, female Sprague Dawley rats were prepared by cannulation of the left carotid artery for blood sampling and by cannulation of the right jugular vein for intravenous administration. The catheters were filled with heparin (100 IU/mL), exteriorized at the nape of the neck and sealed. The surgery was performed under isoflurane (Forene®, Abbott) anesthesia. After surgery the rats were housed individually and had free access to food and water. About 16 h prior to dosing the animals were deprived of food, and fasted until 4 h after dosing. The rats had free access to drinking water during the experiment. On the experiment day, the test item formulation was administered orally by gavage or intravenously in the jugular vein. At pre-defined time points, blood samples of about 0.150 mL were withdrawn from the carotid artery up to 24h after dosing. A total of 10 samples were withdrawn. The blood samples were collected in heparinized plastic tubes and centrifuged, within 30 min, for five min at 10 000 g and +4°C. The plasma was transferred to a 96 well plate and stored at -20°C until analysis by LC/MS/MS. The studies were approved by the Göteborg Animal Research Ethical Board.

T2 sequence (P03951 388-625): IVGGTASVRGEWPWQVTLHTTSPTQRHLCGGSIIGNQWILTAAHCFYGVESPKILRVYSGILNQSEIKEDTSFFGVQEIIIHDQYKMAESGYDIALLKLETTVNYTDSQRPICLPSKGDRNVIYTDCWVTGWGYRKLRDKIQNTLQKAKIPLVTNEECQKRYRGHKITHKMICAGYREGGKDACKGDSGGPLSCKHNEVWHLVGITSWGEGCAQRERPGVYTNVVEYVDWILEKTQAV
T2 sequence (P03951 19-387): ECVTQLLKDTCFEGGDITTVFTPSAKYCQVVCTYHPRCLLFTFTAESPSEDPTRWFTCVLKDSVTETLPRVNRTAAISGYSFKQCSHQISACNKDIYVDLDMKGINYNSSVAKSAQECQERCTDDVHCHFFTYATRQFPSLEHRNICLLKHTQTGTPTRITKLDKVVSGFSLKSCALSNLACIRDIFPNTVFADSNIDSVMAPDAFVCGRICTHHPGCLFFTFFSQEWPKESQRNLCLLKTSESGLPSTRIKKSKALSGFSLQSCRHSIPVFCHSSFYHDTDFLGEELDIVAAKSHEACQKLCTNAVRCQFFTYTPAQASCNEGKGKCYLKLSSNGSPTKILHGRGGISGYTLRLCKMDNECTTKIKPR
T1 sequence (P03951 388-625 S452A/K455A/T493A/C500S): as the sequence (P03951 388-625) above, with S65A, K68A, T106A, C113S counted along it
T3 sequence (P03952 391-638 limits assumed): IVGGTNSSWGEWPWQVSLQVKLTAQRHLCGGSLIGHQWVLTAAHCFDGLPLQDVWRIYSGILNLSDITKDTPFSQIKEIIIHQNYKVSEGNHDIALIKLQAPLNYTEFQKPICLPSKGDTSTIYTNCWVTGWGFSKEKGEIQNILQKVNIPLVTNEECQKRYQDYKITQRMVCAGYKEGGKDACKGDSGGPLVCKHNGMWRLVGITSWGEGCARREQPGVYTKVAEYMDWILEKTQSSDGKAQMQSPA
T3 sequence (P03952 20-390 partner limits assumed): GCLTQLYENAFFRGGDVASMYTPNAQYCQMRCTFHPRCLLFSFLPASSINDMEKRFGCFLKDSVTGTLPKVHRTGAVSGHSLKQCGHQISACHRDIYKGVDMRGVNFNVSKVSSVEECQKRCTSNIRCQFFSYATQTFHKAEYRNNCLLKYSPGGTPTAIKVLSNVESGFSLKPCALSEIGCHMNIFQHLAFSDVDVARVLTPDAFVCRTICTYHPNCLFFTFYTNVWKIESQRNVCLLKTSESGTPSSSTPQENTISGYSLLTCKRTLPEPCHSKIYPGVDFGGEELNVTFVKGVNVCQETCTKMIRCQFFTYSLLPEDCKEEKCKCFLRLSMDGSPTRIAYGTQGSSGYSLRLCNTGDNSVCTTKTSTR

Molecule: 6-methyl-3,4-dihydro-1H-quinolin-2-one [Compound 17]
- hit in NMR screen (FXIa CD [1]): not identified as a hit in NMR
- FXIa % inh. at 1 mM (Human FXIa; 1 mM): 20%

Molecule: CC(C)(C)NC(=O)N1CCN(C(=O)N2C(=O)[C@H](CCCN=C(N)N)[C@H]2C(=O)O)CC1 [BMS-262084]
- IC50 (FXIa): 0.0028 µM
- in vivo antithrombotic efficacy (rat models): demonstrated in vivo antithrombotic efficacy

Molecule: N=C(N)c1ccc2cc(C(=O)Nc3cccc(OCCOCCN)c3)cc(Nc3ncccn3)c2c1 [Compound 4, N-(3-(2-(2-aminoethoxy)ethoxy)phenyl)-6-carbamimidoyl-4-(pyrimidin-2-ylamino)-2-naphthamide, reference compound]
- Kd (FXIa CD [2]): 0.39 µM
- IC50 (Human FXIa): 0.24 µM
- Ki (Human FXIa): 0.12 µM

Molecule: Nc1ccc2c(CNC(=O)[C@H](Cc3ccccc3)NC(=O)c3ccc4[nH]c(=O)cc(O)c4c3)cccc2n1 [Compound 8, (S)-N-(1-{(2-Aminoquinolin-5-yl)methylamino}-1-oxo-3-phenylpropan-2-yl)-4-hydroxy-2-oxo-1,2-dihydroquinoline-6-carboxamide]
- IC50 (Human PKK): 7.2 µM
- selectivity vs. PKK (Human PKK; FXIa over PKK, for 13 based on Ki values): about 25 fold
- Ki (Human PKK): 1.5 µM
- pKa (Experimental pKa): 7.1
- IC50 (Human FXIa): 0.12 µM
- Ki (Human FXIa): 0.06 µM

Molecule: Cc1cc(=O)[nH]c2ccc(Cl)cc12 [Compound 12]
- Precipitates at higher concentration than [3]: > 111 µM
- inhibition at 111 µM (Human FXIa; read-out: FXIa % inh. at 111 μM): 43%

Molecule: CNC(=O)[C@H](Cc1ccccc1)NC(=O)c1ccc2[nH]c(=O)cc(O)c2c1 [Compound 15, (S)-4-Hydroxy-N-(1-(methylamino)-1-oxo-3-phenylpropan-2-yl)-2-oxo-1,2-dihydroquinoline-6-carboxamide]
- Kd (FXIa CD [2]; read-out: FXIa KD): 1400 µM
- ligand efficiency (LE) (Human FXIa; FXIa): 0.15
- -ΔG fragment (printed with reversed sign in the ΔG link equation) (Human FXIa; FXIa, subtracted term, so ΔG itself is negative): 3.9 kcal/mol

Molecule: CN(Cc1cc(=O)[nH]c2ccc(Cl)cc12)C(=O)[C@H](Cc1ccccc1)N(C)C(=O)c1ccc2[nH]c(=O)cc(O)c2c1 [Compound 26, (S)-N-(1-[{(6-Chloro-2-oxo-1,2-dihydroquinolin-4-yl)methyl}(methyl)amino]-1-oxo-3-phenylpropan-2-yl)-4-hydroxy-N-methyl-2-oxo-1,2-dihydroquinoline-6-carboxamide]
- Caco2 A to B permeability (Caco2 cells): 0.16 1·10^-6 cm/s
- chromatographic logD [4]: 1.4
- efflux ratio (Caco2 efflux): > 3.8
- Rat CLint (rat hepatocytes): 23 μL/min/ 1·10^6 cells
- IC50 (Human FXIa): 1.7 µM
- Ki (Human FXIa): 0.85 µM

Molecule: Cc1c(-c2ccccc2)n[nH]c1C(=O)N(C)Cc1cc(=O)[nH]c2ccc(Cl)cc12 [Compound 28, N-{(6-Chloro-2-oxo-1,2-dihydroquinolin-4-yl)methyl}-N,4-dimethyl-3-phenyl-1H-pyrazole-5-carboxamide]
- IC50 (Human PKK): 8.4 µM
- Ki (Human PKK): 1.7 µM
- Caco2 A to B permeability (Caco2 cells): 19 1·10^-6 cm/s
- clearance (In vivo rat PK; intravenous, rat in vivo, read-out: Rat CL (in vivo clearance)): 18 mL/min/kg
- bioavailability (In vivo rat PK; rat, oral): 27%
- chromatographic logD [4]: 2.7
- efflux ratio (Caco2 efflux): 1.6
- Rat CLint (rat hepatocytes): 21 μL/min/ 1·10^6 cells
- IC50 (Human FXIa): 0.82 µM
- Ki (Human FXIa): 0.41 µM
